Target: T1, VEGFR-2 (Homo sapiens, UniProt P35968)
T1 construct: gene KDR; biotin-labeled VEGFR-2 (Prospec)
Test: in vitro tyrosine kinase ELISA
Format: biochemical

T1 sequence (P35968 20-1356): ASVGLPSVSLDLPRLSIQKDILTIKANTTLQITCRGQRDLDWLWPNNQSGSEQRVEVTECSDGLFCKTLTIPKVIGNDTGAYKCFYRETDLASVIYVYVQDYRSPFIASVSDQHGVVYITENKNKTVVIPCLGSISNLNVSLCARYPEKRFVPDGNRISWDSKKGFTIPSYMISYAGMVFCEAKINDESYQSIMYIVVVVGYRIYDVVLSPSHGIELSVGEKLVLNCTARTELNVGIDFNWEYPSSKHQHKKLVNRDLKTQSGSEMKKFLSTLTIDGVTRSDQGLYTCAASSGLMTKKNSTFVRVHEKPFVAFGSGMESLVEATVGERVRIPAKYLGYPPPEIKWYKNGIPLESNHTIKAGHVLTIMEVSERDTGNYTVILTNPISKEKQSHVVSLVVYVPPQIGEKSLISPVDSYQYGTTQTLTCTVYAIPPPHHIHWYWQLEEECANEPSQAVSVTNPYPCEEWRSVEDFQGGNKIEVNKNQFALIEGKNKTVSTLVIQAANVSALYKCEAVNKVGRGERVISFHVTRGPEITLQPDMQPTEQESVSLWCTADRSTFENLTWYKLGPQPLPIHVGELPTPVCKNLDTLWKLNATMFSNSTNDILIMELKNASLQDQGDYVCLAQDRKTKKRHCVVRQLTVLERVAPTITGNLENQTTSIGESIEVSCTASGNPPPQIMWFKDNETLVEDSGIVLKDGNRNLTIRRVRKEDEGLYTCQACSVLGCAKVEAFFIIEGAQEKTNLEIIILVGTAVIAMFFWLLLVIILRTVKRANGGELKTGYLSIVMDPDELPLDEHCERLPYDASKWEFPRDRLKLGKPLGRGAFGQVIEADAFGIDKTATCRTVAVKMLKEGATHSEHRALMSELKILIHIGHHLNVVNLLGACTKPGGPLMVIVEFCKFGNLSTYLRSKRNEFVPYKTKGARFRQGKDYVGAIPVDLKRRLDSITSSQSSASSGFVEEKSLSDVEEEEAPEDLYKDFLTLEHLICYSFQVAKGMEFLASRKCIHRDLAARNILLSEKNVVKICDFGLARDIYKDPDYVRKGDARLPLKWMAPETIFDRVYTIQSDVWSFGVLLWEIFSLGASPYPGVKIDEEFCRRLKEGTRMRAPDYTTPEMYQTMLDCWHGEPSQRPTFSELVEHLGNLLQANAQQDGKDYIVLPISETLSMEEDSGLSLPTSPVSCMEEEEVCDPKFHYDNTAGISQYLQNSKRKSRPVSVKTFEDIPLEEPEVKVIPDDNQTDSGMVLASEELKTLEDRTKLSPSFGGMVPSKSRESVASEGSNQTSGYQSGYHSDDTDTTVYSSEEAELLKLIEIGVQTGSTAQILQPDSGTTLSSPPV

O=C(/C=C/c1ccc(O)cc1)c1ccc(O)cc1O [ISL, Isoliquiritigenin]
IC50: ~100 nM

Source: publication PMC3702614, “Dietary Compound Isoliquiritigenin Inhibits Breast Cancer Neoangiogenesis via VEGF/VEGFR-2 Signaling Pathway” (PLoS ONE, 2013)
